Results reported in patent publication US9200051B2, “Peptide compound” (TAKEDA PHARMACEUTICAL COMPANY LIMITED, priority 2013, dated 2015).
Square brackets hold non-standard residues; d marks the D form. Peptide text beside a SMILES is read from it. αMeF = C[C@](N)(Cc1ccccc1)C(=O)O; 4Pal = N[C@@H](Cc1ccncc1)C(=O)O; Aib = CC(C)(N)C(=O)O

How the values were obtained:
Type in all cases: cell-based
[1] = target: T1, human GIPR (Homo sapiens, UniProt P48546); assay: Agonist activity against human GIPR, CRE-luciferase reporter assay (rise in intracellular cAMP) in hGIPR/CRE-LUC/CHO-K1 cells
T1 construct: expressed in transfected cells; host or cells: CHO-K1 (CRE-LUC/CHO-K1), plasmid hGIPR/pMSRα-neo
T1 sequence (P48546 22-466): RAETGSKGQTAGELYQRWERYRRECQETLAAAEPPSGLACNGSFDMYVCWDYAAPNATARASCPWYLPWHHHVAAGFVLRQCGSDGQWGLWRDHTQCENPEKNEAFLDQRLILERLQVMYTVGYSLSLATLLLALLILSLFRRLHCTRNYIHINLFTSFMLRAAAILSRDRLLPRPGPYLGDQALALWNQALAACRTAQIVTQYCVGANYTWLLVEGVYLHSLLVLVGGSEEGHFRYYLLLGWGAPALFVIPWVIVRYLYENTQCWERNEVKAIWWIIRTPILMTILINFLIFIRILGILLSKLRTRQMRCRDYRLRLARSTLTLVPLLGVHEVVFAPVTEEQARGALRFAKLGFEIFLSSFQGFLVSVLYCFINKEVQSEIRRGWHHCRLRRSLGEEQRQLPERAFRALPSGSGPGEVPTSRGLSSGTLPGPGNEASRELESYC
Source text: (§1) Evaluation of agonist activity against human GIPR, human GLP-1R and human glucagon R using rise in intracellular cAMP concentration as index
The human GIPR gene having a sequence identical to the sequence of GenBank Accession No. U39231 was cloned into pMSRα-neo vector to prepare hGIPR/pMSRα-neo.
(§2) The luciferase reporter gene having an upstream cAMP response sequence was introduced to CHO-K1 cells to construct CRE-LUC/CHO-K1 cells.
The plasmid hGIPR/pMSRα-neo obtained in (1) was introduced to the CRE-LUC/CHO-K1 cells obtained in (2) to obtain transformants. Next, a cell line induced to express luciferase, i.e., hGIPR/CRE-LUC/CHO-K1 cells, were selected from the obtained transformants by the addition of GIP.
(§3) The hGIPR/CRE-LUC/CHO-K1 cells were inoculated at a cell density of 25 μL/well (5×10^4 cells/well) to a 384-well white plate (Corning), and cultured overnight in Ham F12 medium containing 10% fetal bovine serum, 100 U/mL penicillin and 100 μg/mL streptomycin in a CO2 incubator of 37° C. A medium containing a test compound was added at a concentration of 5 μL/well to the cells, and the resultant cells were incubated for 4 hours in a CO2 incubator of 37° C. to give the final concentration of 1 μM. PicaGene LT7.5 (Toyo Ink Co., Ltd.) was added thereto at a concentration of 30 μL/well, and the mixture was shaken with light shielded. After 30 minutes, the luciferase activity was measured using a plate reader Envision (PerkinElmer). The luciferase activity in the presence of 10 nM GIP was defined as 100%, and the luciferase activity from the addition of DMSO instead of the test compound was defined as 0%. The GIPR agonist activity was calculated with a rise in intracellular cAMP concentration as an index.

[2] = target: T2, human GLP-1R (Homo sapiens, UniProt P43220); assay: Agonist activity against human GLP-1R, CRE-luciferase reporter assay in hGLP-1R/CRE-luc/CHO-K1 cells
T2 construct: expressed in transfected cells; host or cells: CHO-K1, plasmids hGLP-1/pIRESneo3 and Cre-luc(Zeo)
T2 sequence (P43220 24-463): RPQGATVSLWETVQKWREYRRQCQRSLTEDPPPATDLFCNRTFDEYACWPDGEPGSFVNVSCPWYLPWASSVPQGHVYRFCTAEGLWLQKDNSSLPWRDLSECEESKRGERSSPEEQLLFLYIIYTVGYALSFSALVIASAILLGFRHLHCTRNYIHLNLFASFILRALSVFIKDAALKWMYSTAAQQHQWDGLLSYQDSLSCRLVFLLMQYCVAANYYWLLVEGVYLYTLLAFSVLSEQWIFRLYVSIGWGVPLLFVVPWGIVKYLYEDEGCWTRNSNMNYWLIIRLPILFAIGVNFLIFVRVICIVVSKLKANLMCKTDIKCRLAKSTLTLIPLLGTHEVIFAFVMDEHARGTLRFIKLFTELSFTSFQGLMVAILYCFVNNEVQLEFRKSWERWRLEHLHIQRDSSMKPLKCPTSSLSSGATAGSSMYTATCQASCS
Source text: as §1
Four copies of the cAMP response sequence and the Zeocin resistance gene were introduced to pGL3(R2.2)-Basic Vector (Promega) to construct Cre-luc(Zeo) reporter plasmid.
The human GLP-1R gene having a sequence identical to the sequence of GenBank Accession No. NM_002062 was cloned into pIRESneo3 vector to prepare hGLP-1/pIRESneo3.
The Cre-luc(Zeo) obtained in (3) and the plasmid hGLP-1/pIRESneo3 obtained in (5) were introduced to CHO-K1 cells to obtain transformants. Next, a cell line induced to express luciferase, i.e., hGLP-1R/CRE-luc/CHO-K1 cells, were selected from the obtained transformants by the addition of GLP-1.
as §3
The GLP-1R agonist activity was assayed in the same way as above using the hGLP-1R/CRE-luc/CHO-K1 cells. The luciferase activity in the presence of 10 nM GLP-1 was defined as 100%, and the luciferase activity from the addition of DMSO instead of the test compound was defined as 0%. The GLP-1R agonist activity was calculated with a rise in intracellular cAMP concentration as an index.

[3] = target: T3, human glucagon R (Homo sapiens, UniProt P47871); assay: Agonist activity against human glucagon R, CRE-luciferase reporter assay in hGlucagonR/CRE-LUC/CHO-K1 cells
T3 construct: expressed in transfected cells; host or cells: CHO-K1 (CRE-LUC/CHO-K1), plasmid hGlucagonR/pMSRα-neo
T3 sequence (P47871 26-477): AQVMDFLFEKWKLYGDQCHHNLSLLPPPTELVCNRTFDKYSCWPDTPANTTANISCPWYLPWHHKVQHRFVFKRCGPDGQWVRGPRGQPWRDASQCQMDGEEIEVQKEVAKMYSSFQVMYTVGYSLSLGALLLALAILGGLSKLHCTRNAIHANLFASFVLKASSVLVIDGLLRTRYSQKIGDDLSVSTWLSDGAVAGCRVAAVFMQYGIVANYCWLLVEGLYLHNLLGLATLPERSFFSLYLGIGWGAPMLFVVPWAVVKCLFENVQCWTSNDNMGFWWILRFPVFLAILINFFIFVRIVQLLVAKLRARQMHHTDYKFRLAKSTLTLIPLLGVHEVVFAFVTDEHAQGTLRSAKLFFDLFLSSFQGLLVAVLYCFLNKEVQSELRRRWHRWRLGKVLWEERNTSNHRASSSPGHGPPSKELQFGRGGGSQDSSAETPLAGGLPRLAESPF
Source text: as §1, §2
The human glucagon R gene having a sequence identical to the sequence of GenBank Accession No. NM_000160 was cloned into pMSRα-neo vector to prepare hGlucagonR/pMSRα-neo.
The plasmid hGlucagonR/pMSRα-neo obtained in (7) was introduced to the CRE-LUC/CHO-K1 cells obtained in (2) to obtain transformants. Next, a cell line induced to express luciferase, i.e., hGlucagonR/CRE-LUC/CHO-K1 cells, were selected from the obtained transformants by the addition of glucagon.
as §3
The glucagon R agonist activity was assayed in the same way as above using the hGlucagonR/CRE-LUC/CHO-K1 cells. The luciferase activity in the presence of 10 nM glucagon was defined as 100%, and the luciferase activity from the addition of DMSO instead of the test compound was defined as 0%. The glucagon agonist activity was calculated with a rise in intracellular cAMP concentration as an index.

SMILES | EC50 [1] [nM] | EC50 [2] [nM] | EC50 [3] [nM]
CC(C)C[C@H](NC(=O)[C@H](CC(C)C)NC(=O)[C@H](Cc1c[nH]c2ccccc12)NC(=O)[C@H](CCCCN)NC(=O)[C@@H](NC(=O)[C@H](Cc1ccccc1)NC(=O)[C@H](CCC(=O)O)NC(=O)[C@H](C)NC(=O)[C@H](CCC(N)=O)NC(=O)[C@H](C)NC(=O)[C@H](CCC(N)=O)NC(=O)[C@H](CCCCN)NC(=O)[C@H](CC(=O)O)NC(=O)[C@H](CC(C)C)NC(=O)C(C)(C)NC(=O)[C@H](CCCCN)NC(=O)C(C)(C)NC(=O)[C@H](Cc1ccc(O)cc1)NC(=O)[C@H](CC(=O)O)NC(=O)[C@H](CO)NC(=O)[C@@H](NC(=O)[C@](C)(Cc1ccccc1)NC(=O)[C@@H](NC(=O)CNC(=O)[C@H](CCC(=O)O)NC(=O)C(C)(C)NC(=O)[C@@H](N)Cc1ccc(O)cc1)[C@@H](C)O)[C@@H](C)O)C(C)C)C(=O)N[C@@H](CCCCN)C(=O)NCC(=O)NCC(=O)N1CCC[C@H]1C(=O)N[C@@H](CO)C(=O)N[C@@H](CO)C(=O)NCC(=O)N[C@@H](C)C(=O)N1CCC[C@H]1C(=O)N1CCC[C@H]1C(=O)N1CCC[C@H]1C(=O)N[C@@H](CO)C(=O)N[C@@H](CCCCN)C(N)=O [Example 9] (H-Y[Aib]EGT[αMeF]TSDY[Aib]K[Aib]LDKQAQAEFVKWLLKGGPSSGAPPPSK-NH2) | 0.008 | 0.015 | > 1000
CC(C)C[C@H](NC(=O)[C@H](CC(C)C)NC(=O)[C@H](Cc1c[nH]c2ccccc12)NC(=O)[C@H](CCCCN)NC(=O)[C@@H](NC(=O)[C@H](Cc1ccccc1)NC(=O)[C@H](CCC(=O)O)NC(=O)[C@H](C)NC(=O)[C@H](CCC(N)=O)NC(=O)[C@H](C)NC(=O)[C@H](CCC(N)=O)NC(=O)[C@H](CCCCN)NC(=O)[C@H](CC(=O)O)NC(=O)[C@H](CC(C)C)NC(=O)C(C)(C)NC(=O)[C@H](C)NC(=O)C(C)(C)NC(=O)[C@H](Cc1ccc(O)cc1)NC(=O)[C@H](CC(=O)O)NC(=O)[C@H](CO)NC(=O)[C@@H](NC(=O)[C@](C)(Cc1ccccc1)NC(=O)[C@@H](NC(=O)CNC(=O)[C@H](CCC(=O)O)NC(=O)C(C)(C)NC(=O)[C@@H](N)Cc1ccc(O)cc1)[C@@H](C)O)[C@@H](C)O)C(C)C)C(=O)N[C@@H](CCCCN)C(=O)NCC(=O)NCC(=O)N1CCC[C@H]1C(=O)N[C@@H](CO)C(=O)N[C@@H](CO)C(=O)NCC(=O)N[C@@H](C)C(=O)N1CCC[C@H]1C(=O)N1CCC[C@H]1C(=O)N1CCC[C@H]1C(=O)N[C@@H](CO)C(=O)N[C@@H](CCCCN)C(N)=O [Example 10] (H-Y[Aib]EGT[αMeF]TSDY[Aib]A[Aib]LDKQAQAEFVKWLLKGGPSSGAPPPSK-NH2) | 0.0054 | 0.0083 | > 1000
CC(C)C[C@H](NC(=O)[C@H](CC(C)C)NC(=O)[C@H](Cc1c[nH]c2ccccc12)NC(=O)[C@H](CCCCN)NC(=O)[C@@H](NC(=O)[C@H](Cc1ccccc1)NC(=O)[C@H](CCC(=O)O)NC(=O)[C@H](C)NC(=O)[C@H](CCC(N)=O)NC(=O)[C@H](C)NC(=O)[C@H](CCC(N)=O)NC(=O)[C@H](CCCCN)NC(=O)[C@H](CC(=O)O)NC(=O)[C@H](CC(C)C)NC(=O)C(C)(C)NC(=O)[C@H](Cc1ccccc1)NC(=O)C(C)(C)NC(=O)[C@H](Cc1ccc(O)cc1)NC(=O)[C@H](CC(=O)O)NC(=O)[C@H](CO)NC(=O)[C@@H](NC(=O)[C@](C)(Cc1ccccc1)NC(=O)[C@@H](NC(=O)CNC(=O)[C@H](CCC(=O)O)NC(=O)C(C)(C)NC(=O)[C@@H](N)Cc1ccc(O)cc1)[C@@H](C)O)[C@@H](C)O)C(C)C)C(=O)N[C@@H](CCCCN)C(=O)NCC(=O)NCC(=O)N1CCC[C@H]1C(=O)N[C@@H](CO)C(=O)N[C@@H](CO)C(=O)NCC(=O)N[C@@H](C)C(=O)N1CCC[C@H]1C(=O)N1CCC[C@H]1C(=O)N1CCC[C@H]1C(=O)N[C@@H](CO)C(=O)N[C@@H](CCCCN)C(N)=O [Example 11] (H-Y[Aib]EGT[αMeF]TSDY[Aib]F[Aib]LDKQAQAEFVKWLLKGGPSSGAPPPSK-NH2) | 0.015 | 0.022 | > 1000
CC(C)C[C@H](NC(=O)[C@H](CC(C)C)NC(=O)[C@H](Cc1c[nH]c2ccccc12)NC(=O)[C@H](CCCCN)NC(=O)[C@@H](NC(=O)[C@H](Cc1ccccc1)NC(=O)[C@H](CCC(=O)O)NC(=O)[C@H](C)NC(=O)[C@H](CCC(N)=O)NC(=O)[C@H](C)NC(=O)[C@H](CCC(N)=O)NC(=O)[C@H](CCCCN)NC(=O)[C@H](CC(=O)O)NC(=O)[C@H](CC(C)C)NC(=O)C(C)(C)NC(=O)[C@H](Cc1ccncc1)NC(=O)C(C)(C)NC(=O)[C@H](Cc1ccc(O)cc1)NC(=O)[C@H](CC(=O)O)NC(=O)[C@H](CO)NC(=O)[C@@H](NC(=O)[C@](C)(Cc1ccccc1)NC(=O)[C@@H](NC(=O)CNC(=O)[C@H](CCC(=O)O)NC(=O)C(C)(C)NC(=O)[C@@H](N)Cc1ccc(O)cc1)[C@@H](C)O)[C@@H](C)O)C(C)C)C(=O)N[C@@H](CCCCN)C(=O)NCC(=O)NCC(=O)N1CCC[C@H]1C(=O)N[C@@H](CO)C(=O)N[C@@H](CO)C(=O)NCC(=O)N[C@@H](C)C(=O)N1CCC[C@H]1C(=O)N1CCC[C@H]1C(=O)N1CCC[C@H]1C(=O)N[C@@H](CO)C(=O)N[C@@H](CCCCN)C(N)=O [Example 12] (H-Y[Aib]EGT[αMeF]TSDY[Aib][4Pal][Aib]LDKQAQAEFVKWLLKGGPSSGAPPPSK-NH2) | 0.0072 | 0.014 | > 1000
CC[C@H](C)[C@H](NC(=O)C(C)(C)NC(=O)[C@H](Cc1ccc(O)cc1)NC(=O)[C@H](CC(=O)O)NC(=O)[C@H](CO)NC(=O)[C@@H](NC(=O)[C@](C)(Cc1ccccc1)NC(=O)[C@@H](NC(=O)CNC(=O)[C@H](CCC(=O)O)NC(=O)C(C)(C)NC(=O)[C@@H](N)Cc1ccc(O)cc1)[C@@H](C)O)[C@@H](C)O)C(=O)N[C@@](C)(Cc1ccccc1)C(=O)N[C@@H](CC(C)C)C(=O)N[C@@H](CC(=O)O)C(=O)N[C@@H](CCCCN)C(=O)N[C@@H](CCC(N)=O)C(=O)N[C@@H](C)C(=O)N[C@@H](CCC(N)=O)C(=O)N[C@@H](C)C(=O)N[C@@H](CCC(=O)O)C(=O)N[C@@H](Cc1ccccc1)C(=O)N[C@H](C(=O)N[C@@H](CCCCN)C(=O)N[C@@H](Cc1c[nH]c2ccccc12)C(=O)N[C@@H](CC(C)C)C(=O)N[C@@H](CC(C)C)C(=O)N[C@@H](CCCCN)C(=O)NCC(=O)NCC(=O)N1CCC[C@H]1C(=O)N[C@@H](CO)C(=O)N[C@@H](CO)C(=O)NCC(=O)N[C@@H](C)C(=O)N1CCC[C@H]1C(=O)N1CCC[C@H]1C(=O)N1CCC[C@H]1C(=O)N[C@@H](CO)C(=O)N[C@@H](CCCCN)C(N)=O)C(C)C [Example 13] (H-Y[Aib]EGT[αMeF]TSDY[Aib]I[αMeF]LDKQAQAEFVKWLLKGGPSSGAPPPSK-NH2) | 0.0072 | 0.011 | > 1000
